Measured values from PubChem BioAssay (NCI).
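Method: 48-hour compound exposure of cells in 96-well plates, five concentrations, linear interpolation of endpoints. GI50: concentration for 50% inhibition of growth. TGI marks complete inhibition of growth.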

Legend:
Experiment in all cases: inhibition of tumour cell growth, NCI panel, 48 h
786-0 renal = test system: 786-0 renal
A549 NSCLC = test system: A549 NSCLC
ACHN renal = test system: ACHN renal
BT-549 breast = test system: BT-549 breast
CAKI-1 renal = test system: CAKI-1 renal
CCRF-CEM leukemia = test system: CCRF-CEM leukemia
COLO 205 colon = test system: COLO 205 colon
DU-145 prostate = test system: DU-145 prostate
EKVX NSCLC = test system: EKVX NSCLC
HCT-116 colon = test system: HCT-116 colon
HCT-15 colon = test system: HCT-15 colon
HOP-62 NSCLC = test system: HOP-62 NSCLC
HOP-92 NSCLC = test system: HOP-92 NSCLC
HS 578T breast = test system: HS 578T breast
HT29 colon = test system: HT29 colon
IGROV1 ovarian = test system: IGROV1 ovarian
K-562 leukemia = test system: K-562 leukemia
KM12 colon = test system: KM12 colon
LOX IMVI melanoma = test system: LOX IMVI melanoma
M14 melanoma = test system: M14 melanoma
MALME-3M melanoma = test system: MALME-3M melanoma
MCF7 breast = test system: MCF7 breast
MDA-MB-231 breast = test system: MDA-MB-231 breast
MDA-MB-435 = test system: MDA-MB-435
MOLT-4 leukemia = test system: MOLT-4 leukemia
NCI-H226 lung = test system: NCI-H226 lung
NCI-H23 lung = test system: NCI-H23 lung
NCI-H460 lung = test system: NCI-H460 lung
NCI-H522 lung = test system: NCI-H522 lung
NCI/ADR-RES ovarian = test system: NCI/ADR-RES ovarian
OVCAR-3 ovarian = test system: OVCAR-3 ovarian
OVCAR-4 ovarian = test system: OVCAR-4 ovarian
OVCAR-5 ovarian = test system: OVCAR-5 ovarian
OVCAR-8 ovarian = test system: OVCAR-8 ovarian
PC-3 prostate = test system: PC-3 prostate
RPMI-8226 leukemia = test system: RPMI-8226 leukemia
RXF 393 renal = test system: RXF 393 renal
SF-268 CNS = test system: SF-268 CNS
SF-295 CNS = test system: SF-295 CNS
SF-539 CNS = test system: SF-539 CNS
SK-MEL-2 melanoma = test system: SK-MEL-2 melanoma
SK-MEL-28 melanoma = test system: SK-MEL-28 melanoma
SK-MEL-5 melanoma = test system: SK-MEL-5 melanoma
SK-OV-3 ovarian = test system: SK-OV-3 ovarian
SN12C renal = test system: SN12C renal
SNB-19 CNS = test system: SNB-19 CNS
SNB-75 CNS = test system: SNB-75 CNS
SR leukemia = test system: SR leukemia
SW-620 colon = test system: SW-620 colon
T-47D breast = test system: T-47D breast
TK-10 renal = test system: TK-10 renal
U251 CNS = test system: U251 CNS
UACC-257 melanoma = test system: UACC-257 melanoma
UACC-62 melanoma = test system: UACC-62 melanoma
UO-31 renal = test system: UO-31 renal
HCC-2998 colon = test system: HCC-2998 colon
HL-60(TB) leukemia = test system: HL-60(TB) leukemia

O=C1OC2(c3ccccc31)c1cc(I)c(O)c(I)c1Oc1c2cc(I)c(O)c1I
TGI (786-0 renal): > 100 µM | TGI (A549 NSCLC): > 100 µM | TGI (ACHN renal): > 100 µM | TGI (BT-549 breast): > 100 µM | TGI (CAKI-1 renal): 85 µM | TGI (CCRF-CEM leukemia): > 100 µM | TGI (COLO 205 colon): > 100 µM | TGI (DU-145 prostate): > 100 µM | TGI (EKVX NSCLC): > 100 µM | TGI (HCT-116 colon): > 100 µM | TGI (HCT-15 colon): > 100 µM | TGI (HOP-62 NSCLC): > 100 µM | TGI (HOP-92 NSCLC): > 100 µM | TGI (HS 578T breast): > 100 µM | TGI (HT29 colon): > 100 µM | TGI (IGROV1 ovarian): > 100 µM | TGI (K-562 leukemia): > 100 µM | TGI (KM12 colon): 43.1 µM | TGI (LOX IMVI melanoma): > 100 µM | TGI (M14 melanoma): > 100 µM | TGI (MALME-3M melanoma): > 100 µM | TGI (MCF7 breast): > 100 µM | TGI (MDA-MB-231 breast): > 100 µM | TGI (MDA-MB-435): > 100 µM | TGI (MOLT-4 leukemia): > 100 µM | TGI (NCI-H226 lung): > 100 µM | TGI (NCI-H23 lung): > 100 µM | TGI (NCI-H460 lung): > 100 µM | TGI (NCI-H522 lung): 78.5 µM | TGI (NCI/ADR-RES ovarian): > 100 µM | TGI (OVCAR-3 ovarian): > 100 µM | TGI (OVCAR-4 ovarian): > 100 µM | TGI (OVCAR-5 ovarian): > 100 µM | TGI (OVCAR-8 ovarian): > 100 µM | TGI (PC-3 prostate): > 100 µM | TGI (RPMI-8226 leukemia): > 100 µM | TGI (RXF 393 renal): > 100 µM | TGI (SF-268 CNS): > 100 µM | TGI (SF-295 CNS): > 100 µM | TGI (SF-539 CNS): > 100 µM | TGI (SK-MEL-2 melanoma): > 100 µM | TGI (SK-MEL-28 melanoma): > 100 µM | TGI (SK-MEL-5 melanoma): > 100 µM | TGI (SK-OV-3 ovarian): > 100 µM | TGI (SN12C renal): > 100 µM | TGI (SNB-19 CNS): > 100 µM | TGI (SNB-75 CNS): > 100 µM | TGI (SR leukemia): > 100 µM | TGI (SW-620 colon): > 100 µM | TGI (T-47D breast): > 100 µM | TGI (TK-10 renal): > 100 µM | TGI (U251 CNS): > 100 µM | TGI (UACC-257 melanoma): > 100 µM | TGI (UACC-62 melanoma): > 100 µM | TGI (UO-31 renal): > 100 µM

O=C1CC(N2C(=O)/C(=C/C(Cl)=C\c3ccc([N+](=O)[O-])cc3)SC2=S)C(=O)N1c1ccc(Cl)cc1 (stereo unspecified)
GI50 (BT-549 breast): 1.75 µM | TGI (BT-549 breast): 3.74 µM | GI50 (CAKI-1 renal): 1.13 µM | TGI (CAKI-1 renal): 3.28 µM | GI50 (CCRF-CEM leukemia): 0.486 µM | TGI (CCRF-CEM leukemia): 12.4 µM | GI50 (COLO 205 colon): 1.4 µM | TGI (COLO 205 colon): 3.76 µM | GI50 (EKVX NSCLC): 3.11 µM | TGI (EKVX NSCLC): > 100 µM | GI50 (HCC-2998 colon): 1.59 µM | TGI (HCC-2998 colon): 3.03 µM | GI50 (HCT-116 colon): 1.35 µM | TGI (HCT-116 colon): 3.04 µM | GI50 (HCT-15 colon): 0.599 µM | TGI (HCT-15 colon): 8.2 µM | GI50 (HL-60(TB) leukemia): 1.45 µM | TGI (HL-60(TB) leukemia): 8.86 µM | GI50 (HOP-62 NSCLC): 1.73 µM | TGI (HOP-62 NSCLC): 5.5 µM | GI50 (HOP-92 NSCLC): 2.58 µM | TGI (HOP-92 NSCLC): 6.79 µM | GI50 (HS 578T breast): 1.8 µM | TGI (HS 578T breast): > 100 µM | GI50 (HT29 colon): 0.632 µM | TGI (HT29 colon): 4.6 µM | GI50 (IGROV1 ovarian): 1.03 µM | TGI (IGROV1 ovarian): 3.26 µM | GI50 (K-562 leukemia): 0.692 µM | TGI (K-562 leukemia): 11.6 µM | GI50 (M14 melanoma): 2.11 µM | TGI (M14 melanoma): 5.06 µM | GI50 (MALME-3M melanoma): 3.09 µM | TGI (MALME-3M melanoma): 11.6 µM | GI50 (MCF7 breast): 1.38 µM | TGI (MCF7 breast): > 100 µM | GI50 (MDA-MB-231 breast): 3.75 µM | TGI (MDA-MB-231 breast): 47.8 µM | GI50 (MDA-MB-435): 1.65 µM | TGI (MDA-MB-435): 3.39 µM | GI50 (MOLT-4 leukemia): 0.596 µM | TGI (MOLT-4 leukemia): 13.4 µM | GI50 (NCI-H226 lung): 1.92 µM | TGI (NCI-H226 lung): 4.65 µM | GI50 (NCI-H23 lung): 1.64 µM | TGI (NCI-H23 lung): 4.31 µM | GI50 (NCI-H460 lung): 3.3 µM | TGI (NCI-H460 lung): > 100 µM | GI50 (NCI-H522 lung): 1.73 µM | TGI (NCI-H522 lung): 4.36 µM | GI50 (NCI/ADR-RES ovarian): 1.01 µM | TGI (NCI/ADR-RES ovarian): 6.19 µM | GI50 (OVCAR-3 ovarian): 0.721 µM | TGI (OVCAR-3 ovarian): 2.62 µM | GI50 (OVCAR-4 ovarian): 5.55 µM | TGI (OVCAR-4 ovarian): > 100 µM | GI50 (OVCAR-8 ovarian): 0.832 µM | TGI (OVCAR-8 ovarian): > 100 µM | GI50 (PC-3 prostate): 1.34 µM | TGI (PC-3 prostate): 4.15 µM | GI50 (RPMI-8226 leukemia): 0.303 µM | TGI (RPMI-8226 leukemia): 0.979 µM | GI50 (RXF 393 renal): 1.26 µM | TGI (RXF 393 renal): 2.72 µM | GI50 (SF-268 CNS): 3.07 µM | TGI (SF-268 CNS): > 100 µM | GI50 (SF-295 CNS): 1.4 µM | TGI (SF-295 CNS): 3.24 µM | GI50 (SF-539 CNS): 1.69 µM | TGI (SF-539 CNS): 4.14 µM | GI50 (SK-MEL-2 melanoma): 3.12 µM | TGI (SK-MEL-2 melanoma): 32.1 µM | GI50 (SK-MEL-28 melanoma): 1.71 µM | TGI (SK-MEL-28 melanoma): 4.02 µM | GI50 (SK-OV-3 ovarian): 3.56 µM | TGI (SK-OV-3 ovarian): > 100 µM | GI50 (SN12C renal): 1.69 µM | TGI (SN12C renal): 11.1 µM | GI50 (SNB-19 CNS): 1.17 µM | TGI (SNB-19 CNS): 2.97 µM | GI50 (SR leukemia): 0.544 µM | TGI (SR leukemia): 14.2 µM | GI50 (SW-620 colon): 0.508 µM | TGI (SW-620 colon): 3.89 µM | GI50 (T-47D breast): 2.03 µM | TGI (T-47D breast): 6.34 µM | GI50 (TK-10 renal): 2.79 µM | TGI (TK-10 renal): 8.63 µM | GI50 (U251 CNS): 0.478 µM | TGI (U251 CNS): 2.47 µM | GI50 (UACC-257 melanoma): 2.92 µM | TGI (UACC-257 melanoma): 66.5 µM | GI50 (UACC-62 melanoma): 1.77 µM | TGI (UACC-62 melanoma): 4.3 µM | GI50 (UO-31 renal): 1.07 µM | TGI (UO-31 renal): 3.3 µM
